Reference: ChEMBL document CHEMBL5053519, “Discovery and structure - activity relationship exploration of pyrazolo[1,5-a]pyrimidine derivatives as potent FLT3-ITD inhibitors” (Bioorg Med Chem, 2021)
Calls of active or inactive are those of the source. No cut-off for these calls is given here.

Assays:
[1] = target: T1, Receptor-type tyrosine-protein kinase FLT3 (Homo sapiens, UniProt P36888)
T1 sequence (P36888 whole entry): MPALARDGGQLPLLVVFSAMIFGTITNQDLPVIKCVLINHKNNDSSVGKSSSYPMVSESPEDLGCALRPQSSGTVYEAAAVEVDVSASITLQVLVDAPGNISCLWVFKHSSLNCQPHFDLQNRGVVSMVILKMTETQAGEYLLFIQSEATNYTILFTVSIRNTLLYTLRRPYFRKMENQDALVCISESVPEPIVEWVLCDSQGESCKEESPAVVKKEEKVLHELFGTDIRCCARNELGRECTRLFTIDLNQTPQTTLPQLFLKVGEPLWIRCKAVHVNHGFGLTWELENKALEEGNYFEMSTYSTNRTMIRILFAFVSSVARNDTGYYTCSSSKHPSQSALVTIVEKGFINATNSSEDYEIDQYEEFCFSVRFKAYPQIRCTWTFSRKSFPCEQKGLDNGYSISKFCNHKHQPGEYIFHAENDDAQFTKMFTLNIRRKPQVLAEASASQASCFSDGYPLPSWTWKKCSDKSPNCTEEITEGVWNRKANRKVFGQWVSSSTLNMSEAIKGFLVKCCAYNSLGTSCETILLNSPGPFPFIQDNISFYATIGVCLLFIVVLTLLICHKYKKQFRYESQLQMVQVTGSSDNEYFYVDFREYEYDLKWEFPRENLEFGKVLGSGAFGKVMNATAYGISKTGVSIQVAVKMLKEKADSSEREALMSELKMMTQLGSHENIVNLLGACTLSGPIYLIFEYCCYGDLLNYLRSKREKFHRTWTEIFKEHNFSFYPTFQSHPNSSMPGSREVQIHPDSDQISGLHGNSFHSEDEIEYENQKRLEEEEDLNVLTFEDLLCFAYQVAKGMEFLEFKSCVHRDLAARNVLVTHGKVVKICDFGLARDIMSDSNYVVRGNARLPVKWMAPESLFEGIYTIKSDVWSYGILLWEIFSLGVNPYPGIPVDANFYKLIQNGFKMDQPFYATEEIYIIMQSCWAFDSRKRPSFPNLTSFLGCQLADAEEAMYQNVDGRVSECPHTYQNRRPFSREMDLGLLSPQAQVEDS
Description: Inhibition of FLT3 (unknown origin) using Poly (Glu,Tyr) 4:1 as substrate incubated for 1 hr in presence of ATP by ELISA

[2] = target: Receptor-type tyrosine-protein kinase FLT3 (Homo sapiens, UniProt P36888, ITD)
Description: Inhibition of FLT3-ITD mutant (unknown origin) using Poly (Glu,Tyr) 4:1 as substrate incubated for 1 hr in presence of ATP by ELISA

[3] = test system: MOLM-13; assay: cells; details: Homo sapiens, MOLM-13, 72 h
Description: Antiproliferative activity against human MOLM-13 cells assessed as reduction in cell viability incubated for 72 hrs by CCK8 assay

[4] = test system: MV4-11; assay: cells; details: Homo sapiens, MV4-11, 72 h
Description: Antiproliferative activity against human MV4-11 cells assessed as reduction in cell viability incubated for 72 hrs by CCK8 assay

[5] = target: Receptor-type tyrosine-protein kinase FLT3 (Homo sapiens, UniProt P36888, D835Y)
[6] = target: Receptor-type tyrosine-protein kinase FLT3 (Homo sapiens) (UniProt P36888); assay: Inhibition of FLT3 in human MV4-11 cells assessed as suppression of Erk phosphorylation incubated for 2 hrs by Western blot analysis; assay type: cell-based; details: dose 0.1-10 nM
[7] = target: Receptor-type tyrosine-protein kinase FLT3 (Homo sapiens) (UniProt P36888); assay: Inhibition of FLT3 phosphorylation in human MV4-11 cells at 0.1 to 10 nM incubated for 2 hrs by Western blot analysis; assay type: cell-based; details: dose 0.1-10 nM
[8] = target: Receptor-type tyrosine-protein kinase FLT3 (Homo sapiens) (UniProt P36888); details: MV4-11, dose 1.1 nM, time 2.0 hrs
[9] = target: Receptor-type tyrosine-protein kinase FLT3 (Homo sapiens) (UniProt P36888); details: MV4-11, dose 1.1 nM, time 2.0 hrs; remark: listed apart in the source

Row | Structure (SMILES) | IC50 [1] | IC50 [2] | IC50 [3] | IC50 [4] | IC50 [5] | inhibition [6] | inhibition [7] | inhibition [8] | inhibition [9]
1 | COc1cc(N2CCOCC2)ccc1NC(=O)c1cnn2ccc(N3CCC[C@@H](N)C3)nc12 | 3.5 nM | 1.3 nM | 28.3 nM | 11.2 nM | – | – | – | – | –
2 | O=C(Nc1ccc(N2CCOCC2)cc1F)c1cnn2ccc(N[C@@H]3CCCNC3)nc12 | 25.1 nM | 110 nM | 16.5 nM | 9.8 nM | – | – | – | – | –
3 | COc1cc(N2CCN(S(C)(=O)=O)CC2)ccc1NC(=O)c1cnn2ccc(N3CCC[C@@H](N)C3)nc12 | 3.9 nM | 18.7 nM | 43.7 nM | 26.5 nM | – | – | – | – | –
4 | CC(C)Oc1cc(N2CCOCC2)ccc1NC(=O)c1cnn2ccc(N[C@@H]3CCCNC3)nc12 | 32.9 nM | 197 nM | 35.9 nM | 34.8 nM | – | – | – | – | –
5 | CN1CCC[C@@H](Nc2ccn3ncc(C(=O)Nc4ccc(N5CCOCC5)cc4C(F)(F)F)c3n2)C1 | 264 nM | 181 nM | 262 nM | 23.4 nM | – | – | – | – | –
6 | COc1cc(N2CCCC2)ccc1NC(=O)c1cnn2ccc(N[C@@H]3CCCNC3)nc12 | 7.1 nM | 83.1 nM | 19.5 nM | 11.7 nM | – | – | – | – | –
7 | COc1cc(N2CCNCC2)ccc1NC(=O)c1cnn2ccc(N3CCC[C@@H](N)C3)nc12 | 3.8 nM | 1.9 nM | 249 nM | 46 nM | – | – | – | – | –
8 | O=C(Nc1ccc(N2CCOCC2)cc1C(F)(F)F)c1cnn2ccc(N[C@H]3CN4CCC3CC4)nc12 | 7 nM | 11.7 nM | 26.3 nM | 5.13 nM | – | – | – | – | –
9 | O=C(Nc1ccc(N2CCOCC2)cc1C(F)(F)F)c1cnn2ccc(NC3CNC3)nc12 | 39.9 nM | 30.7 nM | 157 nM | 29.5 nM | – | – | – | – | –
10 | O=C(Nc1ccc(N2CCOCC2)cc1C(F)(F)F)c1cnn2ccc(NC3CCCCC3)nc12 | > 1000 nM | > 1000 nM | > 1000 nM | > 1000 nM | – | – | – | – | –
11 | O=C(Nc1ccc(N2CCOCC2)cc1C(F)(F)F)c1cnn2ccc(N[C@@H]3CCCCNC3)nc12 | 0.8 nM | 0.5 nM | 1.4 nM | < 0.32 nM | – | – | – | – | –
12 | O=C(Nc1ccc(N2CCOCC2)cc1C(F)(F)F)c1cnn2ccc(N[C@H]3CCCNC3)nc12 | > 1000 nM | 296 nM | 111 nM | 12.9 nM | – | – | – | – | –
13 | COc1cc(N2CCOCC2)ccc1NC(=O)c1cnn2ccc(N[C@@H]3CCCNC3)nc12 | 2.7 nM | 3.1 nM | 10.3 nM | 1 nM | – | – | – | – | –
14 | N#Cc1cc(N2CCOCC2)ccc1NC(=O)c1cnn2ccc(N[C@@H]3CCCNC3)nc12 | 2.6 nM | 2 nM | 3.7 nM | 0.6 nM | – | – | – | – | –
15 | COc1cc(N2CCCCC2)ccc1NC(=O)c1cnn2ccc(N[C@@H]3CCCNC3)nc12 | 8 nM | 69.5 nM | 13 nM | 9.8 nM | – | – | – | – | –
16 | NC(=O)c1cc(N2CCOCC2)ccc1NC(=O)c1cnn2ccc(N[C@@H]3CCCNC3)nc12 | 8.7 nM | 7.2 nM | > 1000 nM | 172 nM | – | – | – | – | –
17 | CN(c1ccn2ncc(C(=O)Nc3ccc(N4CCOCC4)cc3C(F)(F)F)c2n1)[C@@H]1CCCNC1 | 160 nM | > 1000 nM | > 1000 nM | > 1000 nM | – | – | – | – | –
18 | O=C(Nc1ccc(N2CCOCC2)cc1)c1cnn2ccc(N[C@@H]3CCCNC3)nc12 | 37.7 nM | 21.6 nM | 37.1 nM | 23.5 nM | – | – | – | – | –

The remaining compounds from weak to strong by IC50 [1], led by results:

Row | IC50 [1] | IC50 [2] | IC50 [3] | IC50 [4] | IC50 [5] | inhibition [6] | inhibition [7] | inhibition [8] | inhibition [9] | Structure (SMILES)
19 | 38.2 nM | 144 nM | 19.4 nM | 5.3 nM | – | – | – | – | – | COc1ccccc1NC(=O)c1cnn2ccc(N[C@@H]3CCCNC3)nc12
20 | 16.5 nM | 6.7 nM | 155 nM | 28.5 nM | – | – | – | – | – | O=C(Nc1ccc(N2CCOCC2)cc1C(F)(F)F)c1cnn2ccc(NC3CCNCC3)nc12
21 | 12 nM | 3.7 nM | 17 nM | 7 nM | – | – | – | – | – | COc1cc(N2CCN(C)CC2)ccc1NC(=O)c1cnn2ccc(N3CCC[C@@H](N)C3)nc12
22 | 5.5 nM | 96.7 nM | 16.3 nM | 8 nM | – | – | – | – | – | O=C(Nc1ccc(N2CCOCC2)cc1C(F)(F)F)c1cnn2ccc(N[C@@H]3CCNC3)nc12
23 | 3.5 nM | 37.5 nM | 23.5 nM | 10 nM | – | – | – | – | – | COc1cc(N(C)CCN(C)C)ccc1NC(=O)c1cnn2ccc(N[C@@H]3CCCNC3)nc12
24 | 2.9 nM | 18 nM | 10.3 nM | 6.3 nM | – | – | – | – | – | COc1cc(N2CCC(N3CCOCC3)CC2)ccc1NC(=O)c1cnn2ccc(N[C@@H]3CCCNC3)nc12
25 | 2.7 nM | 4.1 nM | 11.4 nM | 9.8 nM | – | – | – | – | – | CCOc1cc(N2CCOCC2)ccc1NC(=O)c1cnn2ccc(N[C@@H]3CCCNC3)nc12
26 | 1.4 nM | 1.1 nM | 13.8 nM | 7.5 nM | – | – | – | – | – | Cc1cc(N2CCOCC2)ccc1NC(=O)c1cnn2ccc(N[C@@H]3CCCNC3)nc12
27 | 1.4 nM | 1.2 nM | 17.4 nM | 7.66 nM | – | – | – | – | – | COc1cc(N2CCN(C(C)=O)CC2)ccc1NC(=O)c1cnn2ccc(N[C@@H]3CCCNC3)nc12
28 | 1.2 nM | 1.6 nM | 2.5 nM | < 0.32 nM | – | – | – | – | – | CSc1cc(N2CCOCC2)ccc1NC(=O)c1cnn2ccc(N[C@@H]3CCCNC3)nc12
29 | 0.4 nM | 0.8 nM | 0.6 nM | < 0.32 nM | 0.4 nM | – | – | – | – | O=C(Nc1ccc(N2CCOCC2)cc1Br)c1cnn2ccc(N[C@@H]3CCCNC3)nc12
30 | 0.4 nM | 1 nM | 1 nM | 1.3 nM | 0.3 nM | Dose-dependent effect | Active | 100% | 100% | O=C(Nc1ccc(N2CCOCC2)cc1C(F)(F)F)c1cnn2ccc(N[C@@H]3CCCNC3)nc12
